Each structure is given as a SMILES string.

The text below walks through data of patent US20070015827A1, “Methods and compositions for treating ophthalmic conditions via serum retinol, serum retinol binding protein (RBP), and/or serum retinol-RBP modulation” (Sytera, Inc., priority 2005, published 2007).

For series [1] the following is noted: cited from earlier work.
The test system of a further series is abca4 null mutant mouse. The series can be described thus: Effect of HPR on serum retinol, 14 days (Example 11). Type of series: in vivo. How it is done:
Initial studies began by examining the effect of HPR on serum retinol. Animals were divided into three groups and given either DMSO, 10 mg/kg HPR, or 20 mg/kg HPR for 14 days. At the end of the study period, blood was collected from the animals, sera were prepared and an acetonitrile extract of the serum was analyzed by reverse phase LC/MS. UV-visible spectral and mass/charge analyses were performed to confirm the identity of the eluted peaks. Sample chromatograms obtained from these analyses are shown: FIG. 1a.—extract from an abca4 null mutant mouse receiving HPR vehicle, DMSO; FIG. 1b.-10 mg/kg HPR; FIG. 1c.-20 mg/kg HPR. […] For 20 mg/kg HPR, serum retinol is decreased 72%, see FIG. 7. The steady state concentrations of retinol and HPR in serum (at 20 mg/kg HPR) were determined to be 2.11 μM and 1.75 μM, respectively.

A further series has as its system abca4 null mutant mice. Kind of series: A2E and A2PE-H2 in eyes after chronic treatment (HPLC). It counts as in vivo, mouse. How it is done: Tissue Extraction. Eye samples were thawed on ice in 1 ml of PBS, pH 7.2 and homogenized by hand using a Duall glass-glass homogenizer. The sample was further homogenized following the addition of 1 ml chlorofomm/methanol (2:1, v/v). The sample was transferred to a boroscilicate tube and lipids were extracted into 4 mls of chloroform. The organic extract was washed with 3 mls PBS, pH 7.2 and the samples were then centrifuged at 3,000×g, 10 min. The choloroform phase was decanted and the aqueous phase was re-extracted with another 4 mls of chloroform. Following centrifugation, the chloroform phases were combined and the samples were taken to dryness under nitrogen gas. Samples residues were resuspended in 100 μl hexane and analyzed by HPLC as described below.
HPLC Analysis. Chromatographic separations were achieved on an Agilent Zorbax Rx-Sil Column (5 μm, 4.6×250 mm) using an Agilent 1100 series liquid chromatograph equipped with fluorescence and diode array detectors. The mobile phase (hexane/2-propanol/ethanol/25 mM KH2PO4, pH 7.0/acetic acid; 485/376/100/50/0.275, v/v) was delivered at 1 ml/min. Sample peak identification was made by comparison to retention time and absorbance spectra of authentic standards. Data are reported as peak fluorescence (L.U.) obtained from the fluorescence detector.
We initiated a one-month study to evaluate the effects of HPR on reduction of A2E and A2E precursors in abca4 null mutant mice. HPR was administered in DMSO (20 mg/kg, ip) to abca4 null mutant mice (BL6/129, aged 2 months) daily for a period of 28 days. Control age/strain matched mice received only the DMSO vehicle. Mice were sampled at 0, 14, and 28 days (n=3 per group), the eyes were enucleated and chloroform-soluble constituents (lipids, retinoids and lipid-retinoid conjugates) were extracted. Mice were sacrificed by cervical dislocation, the eyes were enucleated and individually snap frozen in cryo vials. The sample extracts were then analyzed by HPLC with on-line fluorescence detection. Results from this study show remarkable, early reductions in the A2E precursor, A2PE-H2, see FIG. 4a, and subsequent reductions in A2E, see FIG. 4b. […] A similar study may be undertaken to ascertain effects of HPR treatment on the electroretinographic and morphological phenotypes.
ABCA4 null mutant mice were given the indicated dose of HPR in DMSO or DMSO alone daily for 28 days (n=16 mice per treatment group). At study onset, mice in the 2.5 mg/kg group were 2 months of age, mice in the other treatment groups were 3 months of age. At the indicated times, representative mice were taken from each group (n =4) for analysis of A2E precursor compounds (see FIG. 10, A2PE-H2, panels A, C and E) and A2E (see FIG. 10, panels B, D and F). Eyes were enucleated, hemisected and lipid soluble components were extracted from the posterior pole by chloroform/methanol-water phase partitioning. Sample extracts were analyzed by LC. Identity of the eluted compounds was confirmed by UV-vis absorption spectroscopy and co-elution of sample peaks with authentic standards. Note: limitations in appropriately age and strain-matched mice in the 10 mg/kg group prevented analysis at the 14-day interval.
Extraction and Analysis of Retinoids and A2E. Steady-state levels of retinoids and A2E in eyecups of ABCA4−/− mice were determined following daily administration (28 days) of HPR (FIG. 12). Mice were sacrificed, the eyes enucleated, and the posterior portion of each eye was used for extraction of retinoids or A2E. Methodologies used for extraction of retinoids and A2E from eye tissue and HPLC analysis techniques have been described. See, e.g., Mata N L, Weng J, Travis G H. Biosynthesis of a major lipofuscin fluorophore in mice and humans with ABCR-mediated retinal and macular degeneration. Proc Natl Acad Sci USA. 2000; 97:7154-7159; Weng J, et al.; Cell. 1999;98:13-23; Mata N L, et al.; Invest. Ophthalmol. Visual Sci. 2001; 42:1685-1690. […]

Series [2] in a line: Ocular retinoid content after 7 days of HPR (HPLC). It counts as in vivo, mouse. As to conditions: mouse, RPE (retinal pigment epithelium), intraperitoneal, HPR 5-20 mg/kg/day i.p. in DMSO, dose-dependent, read-out: accumulation of HPR within the RPE. How it is done: (§1) In one study, wild-type mice were given varied doses of HPR (5-20 mg/kg/day, i.p. in DMSO) for 7 days. Control mice received only DMSO. Mice were maintained on a 12 h/12 h light/dark cycle throughout the treatment period. At the end of the study, the ocular retinoid content was determined by high-performance liquid chromatography (HPLC). Light-adapted, rather than dark-adapted, retinoid profiles were obtained so that a measure of retinoids could be obtained while the visual cycle was actively regenerating chromophore. […] This finding is in sharp contrast to data obtained from analysis of mice treated with 13-cis retinoic acid. […] Reduced 11cRDH activity would lead to reduced levels of 11-cis retinal and accumulation of 11-cis retinol. Free 11-cis retinol would be rapidly esterified via LRAT activity resulting in increased 11-cis retinyl esters. This effect of 13-cis retinoic acid on retinoid biosynthesis was also observed in rats in Sieving P A, et al., Proc Natl Acad Sci USA. 2001; 98(4): 1835-40.

A further series relates to wild-type mice. Kind of series: Ocular retinoid content after 7 days of HPR (HPLC). Type of series: in vivo, mouse. Particulars: HPR 5-20 mg/kg/day i.p. How it is done:
as §1

Consider `CC1=C(/C=C/C(C)=C/C=C/C(C)=C/C(=O)Nc2ccc(O)cc2)C(C)(C)CCC1` [HPR, N-(4-hydroxyphenyl)retinamide], for which, in series [1] (4800 mg/m^2 dose, three times daily), the observed toxicities result is “minimal”. Also, in series [1] (human, in vivo), the “plasma concentration after high fat meals versus carbohydrate meals” value is reported as “three times greater”. Moreover, the “decrease of serum all-trans retinol” value with abca4 null mutant mouse (10 mg/kg HPR, 14 days, vs DMSO) was 40%. Moreover, the “decrease of serum retinol” value in the series with abca4 null mutant mouse (20 mg/kg HPR, 14 days, vs DMSO) came out at 72%. The “steady state concentration of retinol in serum” value in the series on abca4 null mutant mouse (at 20 mg/kg HPR) was 2.11 µM. Besides, in the series with abca4 null mutant mice (HPR 2.5 mg/kg daily, 28 days, 2-month old mice), the “reduction in A2PE-H2” value is about 47%. The “less A2E accumulated compared to DMSO littermates” value with abca4 null mutant mice (HPR 10 mg/kg daily, 28 days) was about 50%. Also, in the series with abca4 null mutant mice (HPR 20 mg/kg ip daily, 28 days), the “reduction of A2E” value stood at 55% and the “reduction of A2PE-H2” value was 70%. The “accumulation of A2E and lipofuscin autofluorescence in the RPE (in words)” value with abca4 null mutant mice (mouse, in vivo) was “arrested accumulation”. For the same compound, the concentration at 7 days in series [2] lay within 4 to 6 µM. The “differences in light-adapted retinoid levels” value in the series with wild-type mice is reported as “no significant differences”.
